Measurements from ChEMBL document CHEMBL4024791, “Identification of Morpholino-2H-pyrido[3,2-b][1,4]oxazin-3(4H)-ones as Nonsteroidal Mineralocorticoid Antagonists” (J Med Chem, 2018).

Assays:
CYP3A4 = CYP3A4 (Homo sapiens, UniProt P08684); experiment: Inhibition of CYP3A4 (unknown origin) at 3 uM; assay type: ADME
Progesterone receptor = target: T1, Progesterone receptor (Homo sapiens, UniProt P06401); experiment: Antagonist activity at PR (unknown origin) by Gal4-based cellular assay
T1 sequence (P06401 whole entry): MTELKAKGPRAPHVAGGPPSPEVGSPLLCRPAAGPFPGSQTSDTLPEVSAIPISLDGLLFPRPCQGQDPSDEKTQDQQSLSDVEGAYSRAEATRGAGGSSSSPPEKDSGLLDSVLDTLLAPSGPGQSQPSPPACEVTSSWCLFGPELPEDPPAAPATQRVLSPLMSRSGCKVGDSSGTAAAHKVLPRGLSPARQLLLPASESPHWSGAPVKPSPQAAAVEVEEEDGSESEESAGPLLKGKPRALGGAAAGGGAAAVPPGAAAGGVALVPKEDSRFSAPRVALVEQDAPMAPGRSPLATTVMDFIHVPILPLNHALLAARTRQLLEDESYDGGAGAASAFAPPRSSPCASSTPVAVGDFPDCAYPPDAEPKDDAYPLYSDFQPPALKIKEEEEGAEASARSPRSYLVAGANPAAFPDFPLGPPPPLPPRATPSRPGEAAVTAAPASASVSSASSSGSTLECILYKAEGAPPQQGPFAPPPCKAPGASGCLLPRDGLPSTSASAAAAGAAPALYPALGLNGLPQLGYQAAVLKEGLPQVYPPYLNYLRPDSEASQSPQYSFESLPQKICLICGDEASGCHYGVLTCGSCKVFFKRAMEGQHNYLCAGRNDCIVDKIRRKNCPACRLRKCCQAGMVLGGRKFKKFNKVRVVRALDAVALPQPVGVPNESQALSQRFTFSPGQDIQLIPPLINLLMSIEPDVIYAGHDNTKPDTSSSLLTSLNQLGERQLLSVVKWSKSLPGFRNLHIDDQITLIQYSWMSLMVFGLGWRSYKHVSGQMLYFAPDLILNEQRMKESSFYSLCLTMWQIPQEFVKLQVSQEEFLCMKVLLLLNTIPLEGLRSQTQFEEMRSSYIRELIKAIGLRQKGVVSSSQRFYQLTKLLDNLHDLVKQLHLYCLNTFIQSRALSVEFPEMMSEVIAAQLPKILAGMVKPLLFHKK

[1] = Fraction unbound in dog plasma; assay type: ADME, cell-free, Canis lupus familiaris
CYP2D6 = CYP2D6 (Homo sapiens, UniProt P10635); experiment: Inhibition of CYP2D6 (unknown origin) at 3 uM; assay type: ADME
CYP2D6, sequence (P10635 whole entry): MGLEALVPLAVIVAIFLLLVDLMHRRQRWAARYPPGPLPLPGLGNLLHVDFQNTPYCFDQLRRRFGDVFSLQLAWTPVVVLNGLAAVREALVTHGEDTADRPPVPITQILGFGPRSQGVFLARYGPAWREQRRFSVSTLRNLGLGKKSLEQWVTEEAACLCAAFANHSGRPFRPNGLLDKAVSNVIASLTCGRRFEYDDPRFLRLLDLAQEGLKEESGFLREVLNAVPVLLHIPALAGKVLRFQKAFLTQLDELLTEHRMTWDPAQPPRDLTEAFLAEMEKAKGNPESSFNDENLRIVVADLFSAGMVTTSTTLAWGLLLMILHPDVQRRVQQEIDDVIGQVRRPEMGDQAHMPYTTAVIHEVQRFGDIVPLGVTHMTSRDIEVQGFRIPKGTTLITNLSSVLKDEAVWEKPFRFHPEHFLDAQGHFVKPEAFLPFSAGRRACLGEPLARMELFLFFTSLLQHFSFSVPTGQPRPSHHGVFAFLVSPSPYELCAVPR

[2] = Volume of distribution at steady state in dog; assay type: ADME, Canis lupus familiaris; conditions: in vivo, read-out: Vdss
MDR1 (P-gp) [3] = experiment: Apparent permeability across basolateral to apical side in MDCK cells expressing human MDR1; assay type: ADME, cell-based, Canis lupus familiaris; conditions: dog
[4] = Volume of distribution at steady state in rat; assay type: ADME; conditions: in vivo, read-out: Vdss
Androgen receptor = target: T2, Androgen receptor (Homo sapiens, UniProt P10275); experiment: Binding affinity to AR (unknown origin); assay type: ADME
T2 sequence (P10275 whole entry): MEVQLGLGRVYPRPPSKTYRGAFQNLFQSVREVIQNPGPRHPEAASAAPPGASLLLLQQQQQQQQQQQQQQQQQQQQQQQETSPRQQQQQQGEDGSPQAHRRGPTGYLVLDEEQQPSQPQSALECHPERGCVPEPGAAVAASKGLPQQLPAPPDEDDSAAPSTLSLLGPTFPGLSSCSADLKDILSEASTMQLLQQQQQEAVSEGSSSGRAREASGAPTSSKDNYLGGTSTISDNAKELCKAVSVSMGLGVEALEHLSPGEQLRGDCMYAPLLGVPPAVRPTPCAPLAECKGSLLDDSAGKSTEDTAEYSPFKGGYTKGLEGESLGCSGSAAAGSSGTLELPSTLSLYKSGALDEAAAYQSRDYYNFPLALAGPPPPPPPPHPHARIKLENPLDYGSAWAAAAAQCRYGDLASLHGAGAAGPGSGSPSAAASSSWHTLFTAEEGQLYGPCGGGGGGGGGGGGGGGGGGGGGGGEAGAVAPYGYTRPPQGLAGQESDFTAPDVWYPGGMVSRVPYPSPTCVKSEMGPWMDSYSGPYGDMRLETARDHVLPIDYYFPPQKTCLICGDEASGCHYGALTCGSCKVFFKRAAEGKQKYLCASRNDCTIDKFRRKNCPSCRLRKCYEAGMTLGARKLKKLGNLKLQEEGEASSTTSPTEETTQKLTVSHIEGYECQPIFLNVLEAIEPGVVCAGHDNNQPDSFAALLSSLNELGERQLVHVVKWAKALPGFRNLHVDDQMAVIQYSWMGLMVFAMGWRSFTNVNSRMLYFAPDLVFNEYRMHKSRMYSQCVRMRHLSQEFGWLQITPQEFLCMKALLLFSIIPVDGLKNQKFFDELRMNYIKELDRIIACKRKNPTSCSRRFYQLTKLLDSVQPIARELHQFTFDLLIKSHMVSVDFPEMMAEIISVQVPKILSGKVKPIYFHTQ

[5] = Distribution coefficient, log D of the compound; assay type: physicochemical; conditions: octanol/water
MDR1 (P-gp) [6] = experiment: Apparent permeability across apical to basolateral side in MDCK cells expressing human MDR1; assay type: ADME, cell-based, Canis lupus familiaris; conditions: dog
[7] = AUC in Wistar rat at 30 mg/kg, po administered as single dose measured up to 8 hrs post dose by LC-MS analysis; assay type: ADME, organism-based; set-up: time < 8 hr, dose 30 mg/kg, route oral; conditions: in vivo
Glucocorticoid receptor = target: T3, Glucocorticoid receptor (Homo sapiens, UniProt P04150); experiment: Displacement of [3H]-dexamethasone from recombinant human GST-tagged GR ligand binding domain after 4 hrs by liquid scintillation counting
T3 sequence (P04150 whole entry): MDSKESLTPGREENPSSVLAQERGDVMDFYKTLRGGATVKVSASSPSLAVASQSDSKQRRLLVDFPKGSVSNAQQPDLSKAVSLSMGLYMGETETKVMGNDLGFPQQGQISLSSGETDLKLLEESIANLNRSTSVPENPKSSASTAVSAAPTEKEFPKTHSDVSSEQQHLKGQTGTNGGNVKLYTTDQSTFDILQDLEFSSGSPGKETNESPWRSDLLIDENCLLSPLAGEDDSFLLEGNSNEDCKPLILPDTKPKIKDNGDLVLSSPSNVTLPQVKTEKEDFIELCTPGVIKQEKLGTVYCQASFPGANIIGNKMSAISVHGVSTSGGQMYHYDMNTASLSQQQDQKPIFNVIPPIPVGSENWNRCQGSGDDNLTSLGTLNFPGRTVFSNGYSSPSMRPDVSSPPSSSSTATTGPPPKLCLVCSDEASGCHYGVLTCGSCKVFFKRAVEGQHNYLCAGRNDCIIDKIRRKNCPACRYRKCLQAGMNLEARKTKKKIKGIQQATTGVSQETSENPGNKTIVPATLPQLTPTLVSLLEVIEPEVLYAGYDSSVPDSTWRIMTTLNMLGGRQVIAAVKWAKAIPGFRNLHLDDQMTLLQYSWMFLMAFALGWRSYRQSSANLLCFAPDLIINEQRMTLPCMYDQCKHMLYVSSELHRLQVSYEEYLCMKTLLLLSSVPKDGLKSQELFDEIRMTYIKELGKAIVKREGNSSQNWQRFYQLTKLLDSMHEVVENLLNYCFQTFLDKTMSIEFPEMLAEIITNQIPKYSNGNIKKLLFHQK

[8] = Oral bioavailability in rat; assay type: ADME, organism-based; conditions: in vivo

CYP3A4, sequence (P08684 whole entry, the tested form may be a part): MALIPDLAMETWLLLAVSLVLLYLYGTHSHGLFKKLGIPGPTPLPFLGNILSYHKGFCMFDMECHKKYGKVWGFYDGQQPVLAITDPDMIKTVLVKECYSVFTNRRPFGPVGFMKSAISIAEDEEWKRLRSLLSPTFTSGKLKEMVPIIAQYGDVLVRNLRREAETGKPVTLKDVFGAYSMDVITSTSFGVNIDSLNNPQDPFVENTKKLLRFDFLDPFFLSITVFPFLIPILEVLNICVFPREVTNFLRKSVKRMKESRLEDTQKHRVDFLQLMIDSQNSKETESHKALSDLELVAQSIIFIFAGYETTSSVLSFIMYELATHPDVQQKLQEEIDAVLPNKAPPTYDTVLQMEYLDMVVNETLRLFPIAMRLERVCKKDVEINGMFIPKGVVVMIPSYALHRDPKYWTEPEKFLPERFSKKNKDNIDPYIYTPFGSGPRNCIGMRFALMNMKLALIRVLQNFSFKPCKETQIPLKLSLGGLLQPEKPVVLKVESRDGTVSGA

| inhibition at 3 µM (CYP3A4) [%] | IC50 (Progesterone receptor) [µM] | fraction unbound [1] | inhibition at 3 µM (CYP2D6) [%] | Vd [2] [L/kg] | Papp B→A (MDR1 (P-gp) [3]) [×10⁻⁶ cm/s] | Vd [4] [L/kg] | IC50 (Androgen receptor) [µM] | logD [5] | Papp A→B (MDR1 (P-gp) [6]) [×10⁻⁶ cm/s] | AUC at 8 h [7] [ng·h/mL] | IC50 (Glucocorticoid receptor) [µM] | bioavailability [8] [%] | Compound |
| --- | --- | --- | --- | --- | --- | --- | --- | --- | --- | --- | --- | --- | --- |
| < 20 | > 10 | 0.136 | < 20 | 2.37 | 24.7 | 6.15 | > 10 | 2.8 | 24.9 | 2850 | > 10 | 4 to 16 | C[C@@H]1CN(c2ccc3c(n2)NC(=O)CO3)[C@H](c2ccccc2)CO1 |
| < 10 | > 10 | – | < 10 | – | – | – | – | 2.7 | – | – | – | – | O=C1COc2ccc(N3CCOC[C@H]3c3ccccc3)cc2N1 |
